From US9993494B2, “Compositions and methods for treating fibrotic disease” (eFFECTOR Therapeutics, Inc., priority 2014, dated 2018)

Tested on: normal human lung fibroblasts
Experiment: Ribosomal profiling: translational efficiency in TGFβ-treated fibroblasts
Type: cell-based
Conditions: vs untreated fibroblasts
Procedure: Ribosomal profiling allows for measurement of changes in transcription and translation on a genome-wide basis accompanying TGFβ-dependent transformation of fibroblasts to myofibroblasts. Ribosomal profiles of the TGFβ-treated fibroblasts from Example 1 (about 6×10^6 cells/10 cm plate) were prepared and analyzed for changes in translational efficiencies with respect to potential disease-associated cellular changes accompanying this TGFβ-induced transformation.
Briefly, cells were washed with cold PBS supplemented with cycloheximide and lysed with 1× mammalian cell lysis buffer for 10 minutes on ice. Lysates were clarified by centrifugation for 10 minutes at 14,000 rpm and supernatants were collected. Cell lysates were processed to generate ribosomal protected fragments and total mRNA according to the instructions included with the ARTseq Ribosome Profiling Kit (Illumina, San Diego, Calif.). Sequencing of total RNA (RNA) and of ribosome-protected fragments of RNA (RPF) was carried out using RNA-Seq methodology according to the manufacturer's instructions (Illumina). To analyze the ribosomal profiles, RNA-Seq reads were processed with tools from the FASTX-Toolkit (fastq_quality_trimmer, fastx_clipper and fastx_trimmer). Unprocessed and processed reads were evaluated for a variety of quality measures using FastQC, and processed reads were mapped to the human genome using TopHat (see, e.g., Trapnell et al., Bioinformatics 25:1105, 2009). Gene-by-gene assessment of the number of fragments strictly and uniquely mapping to the coding region of each gene was conducted using HTSeq-count, a component of the HTSeq package. […] Genes with low counts in either RPF or RNA were excluded from differential analyses. Pathway and network analyses of differential data were conducted using Ingenuity Pathway Analysis (IPA).

TGF-β
Log2FC TE AKT1: −0.15
Log2FC TE AKT2: −0.16
Log2FC TE AKT3: 0.35
Log2FC TE ATM: −0.16
Log2FC TE EIF1: 0.75
Log2FC TE EIF2A: 0.74
Log2FC TE EIF2AK1: −0.25
Log2FC TE EIF2AK3: 0.67
Log2FC TE EIF2AK4: −0.28
Log2FC TE EIF2B1: 0.57
Log2FC TE EIF2B2: 0.16
Log2FC TE EIF2B3: 0.54
Log2FC TE EIF2B4: −0.35
Log2FC TE EIF2B5: 0.46
Log2FC TE EIF2C2: 0.12
Log2FC TE EIF2S1: −0.18
Log2FC TE EIF2S2: −0.43
Log2FC TE EIF2S3: 1.05
Log2FC TE EIF3A: 0.04
Log2FC TE EIF3B: 0.30
Log2FC TE EIF3D: 0.71
Log2FC TE EIF3E: 1.33
Log2FC TE EIF3F: 0.92
Log2FC TE EIF3G: 0.55
Log2FC TE EIF3H: 1.34
Log2FC TE EIF3I: 0.29
Log2FC TE EIF3K: 0.73
Log2FC TE EIF3L: 1.63
Log2FC TE EIF3M: 0.90
Log2FC TE EIF4A1: 0.35
Log2FC TE EIF4A2: 0.41
Log2FC TE EIF4A3: 0.19
Log2FC TE EIF4E: −0.51
Log2FC TE EIF4G1: 0.10
Log2FC TE EIF4G2: 0.87
Log2FC TE EIF4G3: −0.54
Log2FC TE EIF5: 0.56
Log2FC TE FAU: 0.35
Log2FC TE GRB2: 0.05
Log2FC TE GSK3B: −0.13
Log2FC TE HRAS: 0.13
Log2FC TE MAP2K1: −0.18
Log2FC TE MAP2K2: 0.02
Log2FC TE MAPK1: 0.12
Log2FC TE MAPK3: 0.29
Log2FC TE MRAS: −0.45
Log2FC TE NRAS: 0.19
Log2FC TE PABPC1: 0.16
Log2FC TE PAIP1: −0.69
Log2FC TE PIK3C2A: −0.64
Log2FC TE PIK3C3: −0.09
Log2FC TE PIK3CA: −0.66
Log2FC TE PIK3R4: −0.69
Log2FC TE PPP1CA: 0.04
Log2FC TE PPP1CB: 0.13
Log2FC TE PPP1CC: 0.27
Log2FC TE PPP1R15A: −0.09
Log2FC TE RAF1: 0.16
Log2FC TE RPL3: 1.68
Log2FC TE RPL4: 1.23
Log2FC TE RPL5: 1.49
Log2FC TE RPL6: 1.13
Log2FC TE RPL7: 0.59
Log2FC TE RPL7A: 1.37
Log2FC TE RPL8: 0.69
Log2FC TE RPL9: 1.41
Log2FC TE RPL10: 0.74
Log2FC TE RPL10A: 0.92
Log2FC TE RPL11: 0.78
Log2FC TE RPL12: 1.28
Log2FC TE RPL13: 0.83
Log2FC TE RPL13A: 1.26
Log2FC TE RPL14: 1.08
Log2FC TE RPL15: 0.95
Log2FC TE RPL17: 0.97
Log2FC TE RPL18: 0.81
Log2FC TE RPL18A: 1.06
Log2FC TE RPL19: 0.71
Log2FC TE RPL21: 0.83
Log2FC TE RPL22: 0.22
Log2FC TE RPL22L1: 0.84
Log2FC TE RPL23: 0.79
Log2FC TE RPL23A: 1.03
Log2FC TE RPL24: 1.09
Log2FC TE RPL26: 1.42
Log2FC TE RPL27: 1.17
Log2FC TE RPL27A: 1.17
Log2FC TE RPL28: 1.24
Log2FC TE RPL29: 1.16
Log2FC TE RPL30: 1.20
Log2FC TE RPL31: 0.80
Log2FC TE RPL32: 1.55
Log2FC TE RPL34: 1.21
Log2FC TE RPL35: 0.59
Log2FC TE RPL35A: 1.22
Log2FC TE RPL36: 0.76
Log2FC TE RPL36AL: −0.08
Log2FC TE RPL37: 1.31
Log2FC TE RPL37A: 1.33
Log2FC TE RPL38: 1.00
Log2FC TE RPL41: 0.85
Log2FC TE RPLP0: 0.73
Log2FC TE RPLP1: 0.50
Log2FC TE RPLP2: 0.93
Log2FC TE RPS2: 0.88
Log2FC TE RPS3: 1.22
Log2FC TE RPS3A: 1.48
Log2FC TE RPS4X: 1.14
Log2FC TE RPS4Y1: 0.78
Log2FC TE RPS5: 0.75
Log2FC TE RPS6: 1.59
Log2FC TE RPS7: 1.13
Log2FC TE RPS8: 1.20
Log2FC TE RPS9: 0.97
Log2FC TE RPS10: 0.74
Log2FC TE RPS11: 0.97
Log2FC TE RPS12: 0.94
Log2FC TE RPS13: 1.15
Log2FC TE RPS14: 1.01
Log2FC TE RPS15: 0.74
Log2FC TE RPS15A: 1.53
Log2FC TE RPS16: 1.10
Log2FC TE RPS18: 1.18
Log2FC TE RPS19: 0.99
Log2FC TE RPS20: 1.39
Log2FC TE RPS21: 1.36
Log2FC TE RPS23: 0.74
Log2FC TE RPS24: 0.66
Log2FC TE RPS25: 1.58
Log2FC TE RPS26: 0.71
Log2FC TE RPS27: 1.08
Log2FC TE RPS27A: 0.71
Log2FC TE RPS27L: −0.15
Log2FC TE RPS28: 0.74
Log2FC TE RPS29: 0.89
Log2FC TE RPSA: 0.99
Log2FC TE RRAS: 0.00
Log2FC TE RRAS2: 0.02
Log2FC TE SHC1: −0.04
Log2FC TE SOS2: 0.49
Log2FC TE UBA52: 0.87
